In patent publication US20200239530A1, “COMPOUNDS AND METHODS OF MODULATING PROTEIN DEGRADATION” (Vividion Therapeutics, Inc., priority 2017, published 2020):

Assays:
Experiment in all cases: Cysteine liganding, probe competition
Assay type in all cases: binding
[1] = biological target: T1, ACAA2 3-ketoacyl-CoA thiolase, mitochondrial (Homo sapiens, UniProt P42765)
T1 construct: Cells were resuspended in cold PBS on ice and sonicated with a probe sonicator to achieve lysis; endogenous in cells
T1 sequence (P42765 1-397): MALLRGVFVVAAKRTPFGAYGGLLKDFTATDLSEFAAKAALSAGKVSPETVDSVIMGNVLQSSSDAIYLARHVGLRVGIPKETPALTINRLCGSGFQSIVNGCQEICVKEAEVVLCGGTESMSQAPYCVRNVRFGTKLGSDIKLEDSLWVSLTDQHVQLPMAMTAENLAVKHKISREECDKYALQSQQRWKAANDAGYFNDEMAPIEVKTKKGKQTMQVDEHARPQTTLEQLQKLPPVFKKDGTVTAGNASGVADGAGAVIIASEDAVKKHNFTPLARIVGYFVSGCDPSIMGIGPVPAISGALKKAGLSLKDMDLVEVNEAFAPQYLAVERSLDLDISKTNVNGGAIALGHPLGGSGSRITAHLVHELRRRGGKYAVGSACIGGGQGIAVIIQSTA
How it was run: (§1)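 Probe competition in native proteome: 5 mg/ml lysate, compound 1 hr 25° C, then desthiobiotin iodoacetamide (10 mM stock) 1 hr 25° C; acetone ppt, urea/DTT reduction, iodoacetamide alkylation, trypsin, streptavidin pull-down.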

[2] = biological target: T2, VRK3 Inactive serine/threonine-protein kinase VRK3 (Homo sapiens, UniProt Q8IV63)
T2 construct: Cells were resuspended in cold PBS on ice and sonicated with a probe sonicator to achieve lysis; endogenous in cells
T2 sequence (Q8IV63 1-474): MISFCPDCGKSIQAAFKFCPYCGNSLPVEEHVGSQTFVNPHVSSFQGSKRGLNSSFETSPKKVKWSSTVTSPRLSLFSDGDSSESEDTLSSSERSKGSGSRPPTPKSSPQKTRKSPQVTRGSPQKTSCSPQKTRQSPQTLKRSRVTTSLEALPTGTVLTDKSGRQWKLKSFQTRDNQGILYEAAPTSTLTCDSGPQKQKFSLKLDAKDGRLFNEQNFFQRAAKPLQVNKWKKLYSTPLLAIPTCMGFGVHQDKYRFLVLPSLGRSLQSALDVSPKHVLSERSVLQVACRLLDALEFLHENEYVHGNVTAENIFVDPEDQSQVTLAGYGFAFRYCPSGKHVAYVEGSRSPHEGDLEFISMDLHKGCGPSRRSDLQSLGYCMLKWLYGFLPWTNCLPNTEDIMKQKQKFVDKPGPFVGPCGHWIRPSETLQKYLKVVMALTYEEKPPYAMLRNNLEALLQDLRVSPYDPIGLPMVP
How it was run: as §1

[3] = biological target: T3, TUBA3D Tubulin alpha-3C/D chain (Homo sapiens, UniProt P0DPH8)
T3 construct: Cells were resuspended in cold PBS on ice and sonicated with a probe sonicator to achieve lysis; endogenous in cells
T3 sequence (P0DPH8 whole entry, looked up): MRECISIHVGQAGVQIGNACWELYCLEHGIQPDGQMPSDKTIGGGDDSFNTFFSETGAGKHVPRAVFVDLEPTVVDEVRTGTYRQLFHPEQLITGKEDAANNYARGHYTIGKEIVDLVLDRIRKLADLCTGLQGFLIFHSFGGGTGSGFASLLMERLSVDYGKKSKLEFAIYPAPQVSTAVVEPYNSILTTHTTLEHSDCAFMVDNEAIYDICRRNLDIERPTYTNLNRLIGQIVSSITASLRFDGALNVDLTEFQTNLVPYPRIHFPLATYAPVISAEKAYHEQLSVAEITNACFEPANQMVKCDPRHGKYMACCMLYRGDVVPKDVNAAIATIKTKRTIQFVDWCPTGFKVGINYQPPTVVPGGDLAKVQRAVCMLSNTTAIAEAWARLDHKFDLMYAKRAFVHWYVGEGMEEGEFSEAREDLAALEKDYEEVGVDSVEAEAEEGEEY
How it was run: as §1

[4] = biological target: T4, PPCDC Phosphopantothenoylcysteine decarboxylase (Homo sapiens, UniProt Q96CD2)
T4 construct: Cells were resuspended in cold PBS on ice and sonicated with a probe sonicator to achieve lysis; endogenous in cells
T4 sequence (Q96CD2 1-204): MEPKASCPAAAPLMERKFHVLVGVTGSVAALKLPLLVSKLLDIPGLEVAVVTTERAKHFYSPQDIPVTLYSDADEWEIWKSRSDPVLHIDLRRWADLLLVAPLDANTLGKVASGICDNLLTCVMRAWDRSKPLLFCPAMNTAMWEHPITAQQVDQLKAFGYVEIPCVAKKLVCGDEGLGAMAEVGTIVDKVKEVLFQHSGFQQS
How it was run: as §1

Structure (SMILES)	Liganded ([1]; ACAA2 Res# 382, uniprot P42765)	Liganded ([2]; VRK3 Res# 191, uniprot Q8IV63)	Liganded ([3]; TUBA3D Res# 4, uniprot Q13748)	Liganded ([3]; TUBA3D Res# 20, uniprot Q13748)	Liganded ([4]; PPCDC Res# 173, uniprot Q96CD2)	100 Max ([1]; uniprot P42765)	100 ave ([1]; uniprot P42765)	500 Max ([1]; uniprot P42765)	500 ave ([1]; uniprot P42765)	100 Max ([2]; uniprot Q8IV63)	100 ave ([2]; uniprot Q8IV63)	500 ave ([2]; uniprot Q8IV63)	500 Max ([2]; uniprot Q8IV63, in % (unit assumed))	100 Max ([4]; uniprot Q96CD2)	100 ave ([4]; uniprot Q96CD2)	500 Max ([4]; uniprot Q96CD2)	500 ave ([4]; uniprot Q96CD2)
COc1ccc2c(c1)CCCN2C(=O)CCl [KB02]	YES	YES	YES	YES	YES												
O=C(CCl)Nc1cc(C(F)(F)F)cc(C(F)(F)F)c1 [KBO3]			YES	YES		3.45	3.45	−0.69	−0.69	−8.38	−10.03	14.41	14.41	23.85	13.215	71.73	71.73
